Results: patent publication US4269831A, “Topical dermatological method of use of an androstenopyrazole” (priority 1979, dated 1981)

What was measured:
[1] = tested on: flank organ of mature male Syrian golden hamsters; test: Topical comparison in mature male hamsters, right flank organ treated, left flank organ vehicle (Tables II, III); type: in vivo; conditions: n=7; for Flank organ Diameter, RFO / Flank organ Weight, RFO / Flank organ Development, RFO (median score): treated right flank organ; for Flank organ Diameter, RFO / Flank organ Weight, RFO: mean; for Flank organ Development, RFO (median score): scale 0 to 4 (0 barely visible, 4 as in mature male); for Flank Organ (Mean Score) Area / Flank Organ (Mean Score) Elevation / Flank Organ (Mean Score) Hair Growth / Flank Organ (Mean Score) Hair Pigmentation / Flank Organ (Mean Score) Skin Pigmentation: RFO, scale 0 to 4
Source text: Each flank organ of mature male Syrian golden hamsters having a mean initial body weight of 105 g. was medicated topically with the compound of Formula I dissolved in ethanol (5 microliters) for twenty-one days. Flank organ hair was clipped three times per week to facilitate application. On the day following the last medication the hamsters were killed with an overdose of sodium pentobarbital. The flank organ parameters and the weights of seminal vesicles, adrenals and thymus glands were determined. Flank organ diameter was measured parallel to the breadth of the hamster with vernier calipers. Wet weights were obtained on flank organs excised around the periphery of the pigmented area. The topical activity of the compound of Formula I was also compared with that of 17β-hydroxy-17α-propylandrost-4-en-3-one, an antiandrogen, and hydrocortisone. In this experiment the right flank organ was treated with the test compound while vehicle-treated left flank organ served as control. […] In addition, the individual characteristics of the flank organ, elevation (thickness relative to adjacent skin), area, hair pigment, skin pigment and hair growth were all scored separately on a scale of 0 to 4.

[2] = target: T1, hamster flank organ cytosol receptor (Mesocricetus auratus, UniProt A0A1U7QL32); test: Binding competition with 3H-dihydrotestosterone in hamster flank organ cytosol in vitro (Table VI); design: species or system Syrian golden hamsters; conditions: 3H-DHT 2 nM, two hours, no antagonist 13.96
T1 construct: The homogenate was centrifuged (120,000×g for 45 min.) and the cytosol was frozen and stored at -70° C; from tissue; host or cells: flank organ cytosol of castrated male Syrian golden hamsters
T1 sequence (A0A1U7QL32 1-900): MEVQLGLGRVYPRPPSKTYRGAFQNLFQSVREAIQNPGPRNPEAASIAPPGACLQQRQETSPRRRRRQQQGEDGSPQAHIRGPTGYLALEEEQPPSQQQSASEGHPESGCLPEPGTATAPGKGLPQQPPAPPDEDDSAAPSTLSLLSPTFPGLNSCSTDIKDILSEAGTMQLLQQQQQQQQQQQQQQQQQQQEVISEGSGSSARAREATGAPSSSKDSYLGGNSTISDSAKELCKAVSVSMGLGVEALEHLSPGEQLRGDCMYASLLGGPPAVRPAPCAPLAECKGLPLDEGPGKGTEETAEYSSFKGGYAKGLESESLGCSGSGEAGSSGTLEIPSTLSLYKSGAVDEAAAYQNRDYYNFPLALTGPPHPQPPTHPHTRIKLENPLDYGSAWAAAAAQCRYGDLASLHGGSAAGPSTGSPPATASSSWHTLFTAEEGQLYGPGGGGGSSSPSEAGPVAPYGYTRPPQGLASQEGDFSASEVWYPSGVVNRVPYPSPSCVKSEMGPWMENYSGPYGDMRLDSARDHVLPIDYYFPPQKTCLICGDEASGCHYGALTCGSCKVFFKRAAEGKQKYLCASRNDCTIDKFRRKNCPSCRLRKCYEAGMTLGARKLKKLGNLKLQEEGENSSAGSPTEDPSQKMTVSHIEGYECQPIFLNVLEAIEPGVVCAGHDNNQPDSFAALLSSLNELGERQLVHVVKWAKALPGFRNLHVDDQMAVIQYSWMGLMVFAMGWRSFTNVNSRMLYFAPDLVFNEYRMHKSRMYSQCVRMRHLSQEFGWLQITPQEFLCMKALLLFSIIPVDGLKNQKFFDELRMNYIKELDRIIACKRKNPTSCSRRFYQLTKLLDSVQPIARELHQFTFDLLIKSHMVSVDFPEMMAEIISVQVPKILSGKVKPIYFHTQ
Procedure: The flank organs of twelve mature male Syrian golden hamsters each weighing from 120 to 140 g. and having been castrated 16-18 hours earlier were excised, dissected under the microscope to remove the dermis and the muscle layers and homogenized in buffer (1.5 volumes of 50 mM Tris, 0.5 mM mercaptoethanol and 0.1 mM ethylenediamine tetracetate, pH 7.4). The homogenate was centrifuged (120,000×g for 45 min.) and the cytosol was frozen and stored at -70° C. Six of the cytosol samples were thawed at room temperature, pooled and used for evaluation of in vitro binding.

[3] = tested on: hair growth on backs of male adrenalectomized Sprague-Dawley rats; test: Reduction in hair growth in male adrenalectomized rats, topical (Table VII); type: in vivo; conditions: 0.1% solution topical, n=12
Source text: Hair was clipped from the backs of male Sprague-Dawley rats, having a mean body weight of 300 g., three weeks after adrenalectomy. The clipped area (4 cm.×4 cm.) was medicated with approximately 500 microliters of 0.1% solution of the compound of Formula I, or hydrocortisone or 500 microliters of ethanol alone for a two-week pretreatment period. The clipped area was then depilated and the medication with either solution or ethanol alone was continued for 4 weeks. The density of hair growth was scored visually at weekly intervals and at termination of the experiment on a scale of 0 to 4 (0, no hair growth; 4, complete hair regrowth). Skinfold thickness was also measured using a micrometer at the end of the experiment, which was conducted blind.

[4] = tested on: castrated immature male Syrian golden hamsters; test: Systemic antiandrogenic and glucocorticoid activity, subcutaneous, with testosterone propionate (Table IV); type: in vivo; conditions: testosterone propionate 0.4 mg/kg/day alone for 14 days (androgen-treated control); mean, n=8
Procedure: A solution of the compound of Formula I in cottonseed oil was administered subcutaneously at 1 ml./kg. to castrated immature male Syrian golden hamsters having a mean initial body weight of 79 g. for 14 consecutive days concurrently with testosterone propionate. On the day following the last medication the hamsters were killed, the flank organ parameters were determined and the weights of seminal vesicles, adrenals and thymus glands were obtained.

[5] = after depilation, median score, scale 0 to 4

| Structure (SMILES) | Flank organ Diameter, RFO ([1]; 5 μg/RFO for 21 days) [mm] | Flank organ Weight, RFO ([1]; 5 μg/RFO for 21 days) [mg] | Flank organ Development, RFO (median score) ([1]; 5 μg/RFO for 21 days) | Flank organ Diameter, RFO ([1]; 50 μg/RFO for 21 days) [mm] | Flank organ Weight, RFO ([1]; 50 μg/RFO for 21 days) [mg] | Flank organ Development, RFO (median score) ([1]; 50 μg/RFO for 21 days) | Flank Organ (Mean Score) Area ([1]; 5 μg/flank organ for 21 days) | Flank Organ (Mean Score) Elevation ([1]; 5 μg/flank organ for 21 days) | Flank Organ (Mean Score) Hair Growth ([1]; 5 μg/flank organ for 21 days) | Flank Organ (Mean Score) Hair Pigmentation ([1]; 5 μg/flank organ for 21 days) | Flank Organ (Mean Score) Skin Pigmentation ([1]; 5 μg/flank organ for 21 days) | Flank Organ (Mean Score) Area ([1]; 50 μg/flank organ for 21 days) | Flank Organ (Mean Score) Elevation ([1]; 50 μg/flank organ for 21 days) | Flank Organ (Mean Score) Hair Growth ([1]; 50 μg/flank organ for 21 days) | Flank Organ (Mean Score) Hair Pigmentation ([1]; 50 μg/flank organ for 21 days) | Flank Organ (Mean Score) Skin Pigmentation ([1]; 50 μg/flank organ for 21 days) | also measured |
| --- | --- | --- | --- | --- | --- | --- | --- | --- | --- | --- | --- | --- | --- | --- | --- | --- | --- |
| CCC[C@]1(O)CC[C@H]2[C@@H]3CCC4=CC(=O)CC[C@]4(C)[C@H]3CC[C@@]21C [17β-Hydroxy-17α-propylandrost-4-en-3-one, 17β-hydroxy-17α-propylandrost-4-en-3-one] | 4.9 | 33.8 | 3 | 3.9 | 21.4 | 2 | 3.1 | 2.6 | 3.1 | 3.3 | 4.0 | 1.6 | 1.4 | 2.3 | 2.6 | 2.7 |  |
| C[C@]12CCC(=O)C[C@@H]1CC[C@@H]1[C@@H]2CC[C@]2(C)[C@@H](O)CC[C@@H]12 [DHT, Dihydrotestosterone, reference compound] |  |  |  |  |  |  |  |  |  |  |  |  |  |  |  |  | % Bound (Mean ± SE) of 3H-dihydrotestosterone ([2]; unlabelled antagonist 20 nM, molar ratio 10): 7.95 ± .41%; % Bound (Mean ± SE) of 3H-dihydrotestosterone ([2]; unlabelled antagonist 200 nM, molar ratio 100): 4.22 ± .001%; % Bound (Mean ± SE) of 3H-dihydrotestosterone ([2]; unlabelled antagonist 2000 nM, molar ratio 1000): 4.00 ± .22% |
| C[C@]12CCC(=O)C=C1CC[C@@H]1[C@@H]2[C@@H](O)C[C@@]2(C)[C@H]1CC[C@]2(O)C(=O)CO [Hydrocortisone, hydrocortisone] | 5.7 | 38.5 | 4 | 5.7 | 39.1 | 4 | 3.7 | 3.7 | 1.9 | 3.7 | 3.9 | 4.0 | 3.5 | 1.3 | 3.0 | 3.4 | Hair Growth Score, Treatment week 1 [3, 5]: 0; Hair Growth Score, Treatment week 2 [3, 5]: 0; Hair Growth Score, Treatment week 3 [3, 5]: 1; Hair Growth Score, Treatment week 4 [3, 5]: 2; Skinfold Thickness, Treatment week 4 ([3]; mean, vehicle 2.51): 2.11 mm; Hair Growth Score, Pretreatment week 1 ([3]; median score, scale 0 to 4 (0 no hair growth, 4 complete regrowth)): 2; Hair Growth Score, Pretreatment week 2 ([3]; median score, scale 0 to 4): 3 |
| CCC(=O)O[C@H]1CC[C@H]2[C@@H]3CCC4=CC(=O)CC[C@]4(C)[C@H]3CC[C@]12C [Testosterone Propionate, testosterone propionate, reference compound] |  |  |  |  |  |  |  |  |  |  |  |  |  |  |  |  | Final Body Weight [4]: 106; Flank Organ Diameter [4]: 4.3 mm; Flank Organ Wet Weight [4]: 22.8 mg; Organ Weights: Adrenals [4]: 18.2 mg; Organ Weights: Seminal Vesicles [4]: 157 mg; Organ Weights: Thymus [4]: 58 mg |
